Laboratory results published in patent US20120028897A1, “METHODS AND COMPOSITIONS FOR THE TREATMENT OF FLUID RETENTION DISORDERS” (priority 2008, published 2012).

What was measured:
Type in all cases: in vivo, rat
anesthetized rats [1] = test: Glomerular filtration rate (FITC-inulin clearance) during and after iv peptide infusion
Experimental: All rats received a continuous intravenous infusion (10 μl/min/100 g BW) of isotonic saline containing FITC-labeled inulin for measurement of inulin clearance. Uncongugated FITC label and small inulin polymers were removed from the inulin solution by overnight dialysis against isotonic saline (SpectraPor 6 dialysis membrane, 1 kDa cutoff-limit, Spectrum Laboratories, Rancho Domingo, Calif.). Undissolved particulates were removed from the solution by filtration through a […] filter before each experiment (Steriflip, Millipore Inc. Billerica, Mass.). At least one hr was allowed for equilibration before the start of urine collections, at which point plasma inulin concentration had stabilized at an average value of 30±3 μg/ml.
(§1) Arterial blood pressure was measured with a pressure transducer connected to a cardiovascular analyzer (Model 50110, Stoelting Instruments Wood Dale, Ill.). Left renal blood flow was measured in some rats with a flow probe positioned on the left renal artery and connected to a blood flow monitor (model 1 PRB probe and model T420 monitor, Transonic Systems Inc. Ithaca N.Y.). Arterial pressure, heart rate, and renal blood flow were digitized with an A/D converter (Keithley instruments, Cleveland, Ohio Model KUSB 3100) for display and storage on a Windows-based personal computer using open layers data acquisition software (Dtx_Ez, Data Translation Inc, Marlboro, Mass.). Sodium and potassium concentrations in plasma and urine were measured by flame photometry (Model 943, Instrumentation Laboratory Co., Lexington Mass.). Glomerular filtration rate (GFR) was measured as the renal clearance rate of FITC-labeled inulin
(§2) After post-surgical equilibration (−60 min) and three 20 min control clearance periods, huUgnA or B was infused into the jugular vein at 10 μl/min over a 60 min period, followed by a return to isotonic saline for the remainder of the experiment. The infused doses of huUgnA were 12, 25, 50, 100, or 200 nmol/kg BW in a total of 38 rats; huUgnB doses were 9, 18, 35, 70, and 140 nmol/kg BW in 35 rats. A UgnA mimetic, E. coli STh (ST-core), was infused into a third group of 32 rats at doses of 17, 32, 66, 133, and 266 nmol/kg. Renal excretory responses to these infusions were slow to develop and long lasting, so clearance periods were continued for 2-3 hr after the termination of the peptide infusion. This protracted time course limited protocols to one dose of one peptide in each rat. A control group of 10 rats received isotonic saline at 10 μl/min in place of the peptide infusion, but was otherwise treated in the same way as the experimental groups.
This assay was based on the method described by Lorenz and Gruenstein. Urine samples were diluted with hepes-buffered saline (3, 5, 10, or 20 fold, based on urine flow) to neutralize the pH and bring the intensity of FITC emissions into detector range. Small volumes (3-5 μl) of diluted urine and undiluted plasma samples were drawn into constant bore capillary tubes (10 μl Microcap tubes, Drummond Scientific Company, Broomall Pa.) and sealed at each end with water-saturated mineral oil. FITC emission intensity was measured by imaging each sample at 10× magnification with an epifluorescence microscope (Axiovert S100TV, Carl Zeiss Inc. Thornwood, N.Y.) fitted with a CCD camera (Orca II, Hamamatsu Inc. Bridgewater, N.J.) controlled by Metamorph imaging software (Molecular Devices, Sunnyvale, Calif.). Fluorescence intensities were measured as mean pixel intensity obtained from a consistent central region of each sample during a 25 or 500 msec exposure for urine and plasma, respectively. Background intensities were measured in the same way using bladder urine and tail vein plasma collected from the same rat before the beginning of inulin infusion. Inulin concentrations in plasma and urine samples were calculated from a standard curve prepared from the infusion solution used in each experiment. […]

anesthetized rats [2] = test: Mean arterial blood pressure during and after iv peptide infusion
Experimental: Rats were not fasted prior to clearance experiments and ranged in weight from 250-340 g at the time of study. Anesthesia was induced with an intraperitoneal injection of pentobarbital sodium (55 mg/kg BW) and maintained at a surgical plane by intermittent intravenous supplementation. Core temperature was maintained at 37° C. by a servo-controlled, heated operating table. Animals breathed spontaneously through a PE240 cannula inserted into the trachea. A jugular vein was catheterized with PE50 cannula tubing for intravenous infusion of isotonic saline containing FITC-labeled inulin (0.4% W/V, Sigma, St Louis Mo.) and two PE10 cannulae, one for supplemental anesthetic and the other for peptide infusions (described below in the experimental protocol section). The ureters were exposed through a midline ventral incision and cannulated with PE10 tubing about one cm from each kidney. Urine was collected over 20 min periods and the volume estimated by weight. A femoral artery was cannulated with PE50 tubing for continuous measurement of arterial blood pressure and intermittent blood samples (50 μl), taken at the mid point of each urine collection.
as §1, §2
Group comparisons were made with one way analysis of variance (ANOVA) using peptide doses as column variables. Columns were further divided into pre-infusion, infusion, and post infusion subgroups to facilitate post hoc testing with Bonferroni's method for selected multiple comparisons. Row variables were individual measurements from each clearance period for each rat. Responses were tested for statistical significance by comparing control values during the pre-infusion, infusion and post infusion collection periods with corresponding values obtained from peptide-infused rats. Each experimental group included 5 different doses of huUgnA, huUgnB, or ST-core. Thus, fifteen comparisons were required for each measured variable in each group.

anesthetized rats [3] = test: Renal blood flow (flow probe on left renal artery)
Experimental: as §1, §2

CC(C)C[C@H](NC(=O)[C@@H]1CSSC[C@@H]2NC(=O)[C@H](CC(C)C)NC(=O)[C@H](CCC(=O)O)NC(=O)[C@@H](NC(=O)[C@H](CC(=O)O)NC(=O)[C@H](CC(=O)O)NC(=O)[C@@H](N)CC(N)=O)CSSC[C@H](NC(=O)[C@H](C)NC(=O)[C@H](C(C)C)NC(=O)[C@H](CC(N)=O)NC(=O)[C@H](C(C)C)NC2=O)C(=O)N[C@@H]([C@@H](C)O)C(=O)NCC(=O)N1)C(=O)O (single isomer, unassigned) [huUgnA, Asn Asp Asp Cys Glu Leu Cys Val Asn Val Ala Cys Thr Gly Cys Leu, reference compound]
GFR (glomerular filtration rate) (anesthetized rats [1]; huUgnA 12 nmol, Infusion): 869 ± 64 μl/min/g KW
GFR (glomerular filtration rate) (anesthetized rats [1]; huUgnA 12 nmol, Post-infuse): 923 ± 66 μl/min/g KW
GFR (glomerular filtration rate) (anesthetized rats [1]; huUgnA 12 nmol, Pre-infuse): 895 ± 51 μl/min/g KW
GFR (glomerular filtration rate) (anesthetized rats [1]; huUgnA 25 nmol, Infusion): 886 ± 66 μl/min/g KW
GFR (glomerular filtration rate) (anesthetized rats [1]; huUgnA 25 nmol, Post-infuse): 823 ± 49 μl/min/g KW
GFR (glomerular filtration rate) (anesthetized rats [1]; huUgnA 25 nmol, Pre-infuse): 820 ± 40 μl/min/g KW
GFR (glomerular filtration rate) (anesthetized rats [1]; huUgnA 50 nmol, Infusion): 817 ± 53 μl/min/g KW
GFR (glomerular filtration rate) (anesthetized rats [1]; huUgnA 50 nmol, Post-infuse): 869 ± 49 μl/min/g KW
GFR (glomerular filtration rate) (anesthetized rats [1]; huUgnA 50 nmol, Pre-infuse): 858 ± 52 μl/min/g KW
GFR (glomerular filtration rate) (anesthetized rats [1]; huUgnA 100 nmol, Infusion): 858 ± 55 μl/min/g KW
GFR (glomerular filtration rate) (anesthetized rats [1]; huUgnA 100 nmol, Post-infuse): 906 ± 38 μl/min/g KW
GFR (glomerular filtration rate) (anesthetized rats [1]; huUgnA 100 nmol, Pre-infuse): 807 ± 62 μl/min/g KW
GFR (glomerular filtration rate) (anesthetized rats [1]; huUgnA 200 nmol, Infusion): 827 ± 61 μl/min/g KW
GFR (glomerular filtration rate) (anesthetized rats [1]; huUgnA 200 nmol, Post-infuse): 849 ± 24 μl/min/g KW
GFR (glomerular filtration rate) (anesthetized rats [1]; huUgnA 200 nmol, Pre-infuse): 857 ± 43 μl/min/g KW
BP (mean arterial blood pressure) (anesthetized rats [2]; huUgnA 12 nmol, Infusion): 110 ± 4 mmHg
BP (mean arterial blood pressure) (anesthetized rats [2]; huUgnA 12 nmol, Post-infuse): 104 ± 3 mmHg
BP (mean arterial blood pressure) (anesthetized rats [2]; huUgnA 12 nmol, Pre-infuse): 121 ± 4 mmHg
BP (mean arterial blood pressure) (anesthetized rats [2]; huUgnA 25 nmol, Infusion): 111 ± 4 mmHg
BP (mean arterial blood pressure) (anesthetized rats [2]; huUgnA 25 nmol, Post-infuse): 105 ± 4 mmHg
BP (mean arterial blood pressure) (anesthetized rats [2]; huUgnA 25 nmol, Pre-infuse): 119 ± 3 mmHg
BP (mean arterial blood pressure) (anesthetized rats [2]; huUgnA 50 nmol, Infusion): 106 ± 3 mmHg
BP (mean arterial blood pressure) (anesthetized rats [2]; huUgnA 50 nmol, Post-infuse): 101 ± 3 mmHg
BP (mean arterial blood pressure) (anesthetized rats [2]; huUgnA 50 nmol, Pre-infuse): 117 ± 3 mmHg
BP (mean arterial blood pressure) (anesthetized rats [2]; huUgnA 100 nmol, Infusion): 115 ± 3 mmHg
BP (mean arterial blood pressure) (anesthetized rats [2]; huUgnA 100 nmol, Post-infuse): 109 ± 4 mmHg
BP (mean arterial blood pressure) (anesthetized rats [2]; huUgnA 100 nmol, Pre-infuse): 121 ± 4 mmHg
BP (mean arterial blood pressure) (anesthetized rats [2]; huUgnA 200 nmol, Infusion): 113 ± 5 mmHg
BP (mean arterial blood pressure) (anesthetized rats [2]; huUgnA 200 nmol, Post-infuse): 112 ± 4 mmHg
BP (mean arterial blood pressure) (anesthetized rats [2]; huUgnA 200 nmol, Pre-infuse): 121 ± 7 mmHg
Renal blood flow (RBF) (anesthetized rats [3]; 25 nmol UgnA, before (first value of change), n=4): 2.7+0.3 ml/min/g KW
Renal blood flow (RBF) (anesthetized rats [3]; after 25 nmol UgnA, p<0.001, n=4): 3.2+0.1 ml/min/g KW

CC(C)C[C@H](NC(=O)[C@@H]1CSSC[C@@H]2NC(=O)[C@H](CC(C)C)NC(=O)[C@H](CCC(=O)O)NC(=O)[C@@H](NC(=O)[C@H](CC(=O)O)NC(=O)[C@H](CC(=O)O)NC(=O)[C@@H](N)CC(N)=O)CSSC[C@H](NC(=O)[C@H](C)NC(=O)[C@H](C(C)C)NC(=O)[C@H](CC(N)=O)NC(=O)[C@H](C(C)C)NC2=O)C(=O)N[C@@H]([C@@H](C)O)C(=O)NCC(=O)N1)C(=O)O (single isomer, unassigned) [huUgnB, Asn Asp Asp Cys Glu Leu Cys Val Asn Val Ala Cys Thr Gly Cys Leu]
GFR (glomerular filtration rate) (anesthetized rats [1]; huUgnB 9 nmol, Infusion): 918 ± 66 μl/min/g KW
GFR (glomerular filtration rate) (anesthetized rats [1]; huUgnB 9 nmol, Post-infuse): 947 ± 60 μl/min/g KW
GFR (glomerular filtration rate) (anesthetized rats [1]; huUgnB 9 nmol, Pre-infuse): 921 ± 57 μl/min/g KW
GFR (glomerular filtration rate) (anesthetized rats [1]; huUgnB 18 nmol, Infusion): 936 ± 76 μl/min/g KW
GFR (glomerular filtration rate) (anesthetized rats [1]; huUgnB 18 nmol, Post-infuse): 877 ± 80 μl/min/g KW
GFR (glomerular filtration rate) (anesthetized rats [1]; huUgnB 18 nmol, Pre-infuse): 890 ± 55 μl/min/g KW
GFR (glomerular filtration rate) (anesthetized rats [1]; huUgnB 35 nmol, Infusion): 830 ± 48 μl/min/g KW
GFR (glomerular filtration rate) (anesthetized rats [1]; huUgnB 35 nmol, Post-infuse): 870 ± 53 μl/min/g KW
GFR (glomerular filtration rate) (anesthetized rats [1]; huUgnB 35 nmol, Pre-infuse): 866 ± 64 μl/min/g KW
GFR (glomerular filtration rate) (anesthetized rats [1]; huUgnB 70 nmol, Infusion): 867 ± 86 μl/min/g KW
GFR (glomerular filtration rate) (anesthetized rats [1]; huUgnB 70 nmol, Post-infuse): 876 ± 26 μl/min/g KW
GFR (glomerular filtration rate) (anesthetized rats [1]; huUgnB 70 nmol, Pre-infuse): 883 ± 95 μl/min/g KW
GFR (glomerular filtration rate) (anesthetized rats [1]; huUgnB 140 nmol, Infusion): 788 ± 67 μl/min/g KW
GFR (glomerular filtration rate) (anesthetized rats [1]; huUgnB 140 nmol, Post-infuse): 924 ± 46 μl/min/g KW
GFR (glomerular filtration rate) (anesthetized rats [1]; huUgnB 140 nmol, Pre-infuse): 858 ± 86 μl/min/g KW
BP (mean arterial blood pressure) (anesthetized rats [2]; huUgnB 9 nmol, Infusion): 108 ± 6 mmHg
BP (mean arterial blood pressure) (anesthetized rats [2]; huUgnB 9 nmol, Post-infuse): 107 ± 5 mmHg
BP (mean arterial blood pressure) (anesthetized rats [2]; huUgnB 9 nmol, Pre-infuse): 115 ± 5 mmHg
BP (mean arterial blood pressure) (anesthetized rats [2]; huUgnB 18 nmol, Infusion): 117 ± 3 mmHg
BP (mean arterial blood pressure) (anesthetized rats [2]; huUgnB 18 nmol, Post-infuse): 113 ± 3 mmHg
BP (mean arterial blood pressure) (anesthetized rats [2]; huUgnB 18 nmol, Pre-infuse): 124 ± 2 mmHg
BP (mean arterial blood pressure) (anesthetized rats [2]; huUgnB 35 nmol, Infusion): 108 ± 4 mmHg
BP (mean arterial blood pressure) (anesthetized rats [2]; huUgnB 35 nmol, Post-infuse): 107 ± 3 mmHg
BP (mean arterial blood pressure) (anesthetized rats [2]; huUgnB 35 nmol, Pre-infuse): 118 ± 3 mmHg
BP (mean arterial blood pressure) (anesthetized rats [2]; huUgnB 70 nmol, Infusion): 107 ± 5 mmHg
BP (mean arterial blood pressure) (anesthetized rats [2]; huUgnB 70 nmol, Post-infuse): 107 ± 4 mmHg
BP (mean arterial blood pressure) (anesthetized rats [2]; huUgnB 70 nmol, Pre-infuse): 119 ± 3 mmHg
BP (mean arterial blood pressure) (anesthetized rats [2]; huUgnB 140 nmol, Infusion): 119 ± 5 mmHg
BP (mean arterial blood pressure) (anesthetized rats [2]; huUgnB 140 nmol, Post-infuse): 117 ± 5 mmHg
BP (mean arterial blood pressure) (anesthetized rats [2]; huUgnB 140 nmol, Pre-infuse): 123 ± 5 mmHg
Renal blood flow (RBF) (anesthetized rats [3]; 35 nmol huUgnB/kg, before (first value of change), n=4): 2.5+0.1 ml/min/g KW
Renal blood flow (RBF) (anesthetized rats [3]; after 35 nmol huUgnB/kg, p<0.001, n=4): 3.0+0.4 ml/min/g KW
